The values below come from US20210101874A1, “MICROBIOCIDAL OXADIAZOLE DERIVATIVES” (SYNGENTA PARTICIPATIONS AG, priority 2017, published 2021).

The test system of assay [1] is Puccinia recondita f. sp. Tritici. The assay can be described thus: Puccinia recondita f. sp. tritici / wheat / leaf disc preventative (brown rust). Format: in vivo. Conditions: foliar, 200 ppm in the applied formulation, wheat leaf segments cv. Kanzler, inoculated 1 day after application, compared to untreated, assessed 7 to 9 days after application, read-out: disease control. As to the method: Leaf disks or leaf segments of various plant species are cut from plants grown in a greenhouse. The cut leaf disks or segments are placed in multiwell plates (24-well format) onto water agar. The leaf disks are sprayed with a test solution before (preventative) or after (curative) inoculation. Compounds to be tested are prepared as DMSO solutions (max. 10 mg/ml) which are diluted to the appropriate concentration with 0.025% Tween20 just before spraying. The inoculated leaf disks or segments are incubated under defined conditions (temperature, relative humidity, light, etc.) according to the respective test system. A single evaluation of disease level is carried out 3 to 14 days after inoculation, depending on the pathosystem. Percent disease control relative to the untreated check leaf disks or segments is then calculated. Wheat leaf segments cv. Kanzler were placed on agar in multiwell plates (24-well format) and sprayed with the formulated test compound diluted in water. The leaf disks were inoculated with a spore suspension of the fungus 1 day after application. The inoculated leaf segments were incubated at 19° C. and 75% relative humidity (rh) under a light regime of 12 hours light/12 hours darkness in a climate cabinet and the activity of a compound was assessed as percent disease control compared to untreated when an appropriate level of disease damage appears in untreated check leaf segments (7 to 9 days after application). The following compounds at 200 ppm in the applied formulation give at least 80% disease control in this test when compared to untreated control leaf disks under the same conditions, which show extensive disease development.

Assay [2] shares this test system. The assay can be described thus: Puccinia recondita f. sp. tritici / wheat / leaf disc curative (brown rust). Format: in vivo. The note with it: foliar, 200 ppm in the applied formulation, wheat leaf segments cv. Kanzler, applied 1 day after inoculation, compared to untreated, assessed 6 to 8 days after application, read-out: disease control. The method, then:
Leaf disks or leaf segments of various plant species are cut from plants grown in a greenhouse. The cut leaf disks or segments are placed in multiwell plates (24-well format) onto water agar. The leaf disks are sprayed with a test solution before (preventative) or after (curative) inoculation. Compounds to be tested are prepared as DMSO solutions (max. 10 mg/ml) which are diluted to the appropriate concentration with 0.025% Tween20 just before spraying. The inoculated leaf disks or segments are incubated under defined conditions (temperature, relative humidity, light, etc.) according to the respective test system. A single evaluation of disease level is carried out 3 to 14 days after inoculation, depending on the pathosystem. Percent disease control relative to the untreated check leaf disks or segments is then calculated.
Wheat leaf segments cv. Kanzler are placed on agar in multiwell plates (24-well format). The leaf segments are then inoculated with a spore suspension of the fungus. Plates were stored in darkness at 19° C. and 75% relative humidity. The formulated test compound diluted in water was applied 1 day after inoculation. The leaf segments were incubated at 19° C. and 75% relative humidity under a light regime of 12 hours light/12 hours darkness in a climate cabinet and the activity of a compound was assessed as percent disease control compared to untreated when an appropriate level of disease damage appears in untreated check leaf segments (6 to 8 days after application).
The following compounds at 200 ppm in the applied formulation give at least 80% disease control in this test when compared to untreated control leaf disks under the same conditions, which show extensive disease development.

The test system of assay [3] is Glomerella lagenarium (Colletotrichum lagenarium). Put plainly: Glomerella lagenarium (Colletotrichum lagenarium) liquid culture / cucumber / preventative (anthracnose). Format: cell-based. Conditions: Colletotrichum orbiculare; 20 ppm in the applied formulation; conidia in PDB nutrient broth, 24° C.; 3 to 4 days after application; compared to untreated; read-out: disease control (inhibition of growth measured photometrically). The method, then:
Mycelia fragments or conidia suspensions of a fungus prepared either freshly from liquid cultures of the fungus or from cryogenic storage, are directly mixed into nutrient broth. DMSO solutions of the test compound (max. 10 mg/ml) are diluted with 0.025% Tween20 by a factor of 50 and 10 µl of this solution is pipetted into a microtiter plate (96-well format). The nutrient broth containing the fungal spores/mycelia fragments is then added to give an end concentration of the tested compound. The test plates are incubated in the dark at 24° C. and 96% relative humidity. The inhibition of fungal growth is determined photometrically after 2 to 7 days, depending on the pathosystem, and percent antifungal activity relative to the untreated check is calculated. Conidia of the fungus from cryogenic storage are directly mixed into nutrient broth (PDB—potato dextrose broth). After placing a (DMSO) solution of test compound into a microtiter plate (96-well format), the nutrient broth containing the fungal spores is added. The test plates are incubated at 24° C. and the inhibition of growth is measured photometrically 3 to 4 days after application. The following compounds at 20 ppm in the applied formulation give at least 80% disease control in this test when compared to untreated control under the same conditions, which show extensive disease development.

Where only a bound is given, the exact number is not on record here.

The term inhibition denotes how much of the control response was suppressed. `C#CCNS(=O)(=O)N(C)Cc1ccc(-c2noc(C(F)(F)F)n2)cc1` [Compound 1.19, 3-[4-[[methyl(prop-2-ynylsulfamoyl)amino]methyl]phenyl]-5-(trifluoromethyl)-1,2,4-oxadiazole]: the pest or weed control at 200 ppm in assay [1] and in assay [2] was ≥ 80% each time. The inhibition at 20 ppm in assay [3] was ≥ 80%.
Regarding `C#CCNS(=O)(=O)N(Cc1ccc(-c2noc(C(F)(F)F)n2)cc1)C1CC1` [Compound 1.20, 3-[4-[[cyclopropyl(prop-2-ynylsulfamoyl)amino]methyl]phenyl]-5-(trifluoromethyl)-1,2,4-oxadiazole], in assay [2], the pest or weed control at 200 ppm was ≥ 80%. For the same compound, the inhibition at 20 ppm in assay [3] was ≥ 80%.
Take `CCCS(=O)(=O)N(C)Cc1ccc(-c2noc(C(F)(F)F)n2)cc1` [Compound 1.25, N-methyl-N-[[4-[5-(trifluoromethyl)-1,2,4-oxadiazol-3-yl]phenyl]methyl] propane-1-sulfonamide]: the pest or weed control at 200 ppm in assay [1] and in assay [2] was ≥ 80% throughout. Also, in assay [3], the inhibition at 20 ppm is ≥ 80%.
`CCN(Cc1ccc(-c2noc(C(F)(F)F)n2)cc1)S(=O)(=O)c1ccn(C)n1` [Compound 1.29, N-ethyl-1-methyl-N-[[4-[5-(trifluoromethyl)-1,2,4-oxadiazol-3-yl]phenyl]methyl] pyrazole-3-sulfonamide]: the pest or weed control at 200 ppm in assay [1] and in assay [2] was ≥ 80% throughout. Further, the inhibition at 20 ppm in assay [3] is ≥ 80%.
In the case of `CCN(Cc1ccc(-c2noc(C(F)(F)F)n2)cc1)S(=O)(=O)C1CC1` [Compound 1.33, N-ethyl-N-[[4-[5-(trifluoromethyl)-1,2,4-oxadiazol-3-yl]phenyl]methyl] cyclopropanesulfonamide], the pest or weed control at 200 ppm in assay [1] and in assay [2] was ≥ 80% each time. For the same compound, in assay [3], the inhibition at 20 ppm is ≥ 80%.
Regarding `C=CCS(=O)(=O)N(CC)Cc1ccc(-c2noc(C(F)(F)F)n2)cc1` [Compound 1.34, N-ethyl-N-[[4-[5-(trifluoromethyl)-1,2,4-oxadiazol-3-yl]phenyl]methyl] prop-2-ene-1-sulfonamide], the pest or weed control at 200 ppm in assay [1] and in assay [2] was ≥ 80% in each case. Moreover, the inhibition at 20 ppm in assay [3] is ≥ 80%.
With `CCN(Cc1ccc(-c2noc(C(F)(F)F)n2)cc1)S(=O)(=O)CC1CCOC1` (stereo not shown) [Compound 1.35, N-ethyl-1-tetrahydrofuran-3-yl-N-[[4-[5-(trifluoromethyl)-1,2,4-oxadiazol-3-yl]phenyl]methyl] methanesulfonamide], the pest or weed control at 200 ppm in assay [1] and in assay [2] was ≥ 80% in each case. For the same compound, the inhibition at 20 ppm in assay [3] is ≥ 80%.
With `CCN(Cc1ccc(-c2noc(C(F)(F)F)n2)cc1)S(=O)(=O)CCOC` [Compound 1.37, N-ethyl-2-methoxy-N-[[4-[5-(trifluoromethyl)-1,2,4-oxadiazol-3-yl]phenyl]methyl] ethanesulfonamide], the pest or weed control at 200 ppm in assay [1] and in assay [2] was ≥ 80% throughout. Besides, the inhibition at 20 ppm in assay [3] was ≥ 80%.
Take `C/C=C/S(=O)(=O)N(CC)Cc1ccc(-c2noc(C(F)(F)F)n2)cc1` [Compound 1.39, (E)-N-ethyl-N-[[4-[5-(trifluoromethyl)-1,2,4-oxadiazol-3-yl]phenyl]methyl] prop-1-ene-1-sulfonamide]: the pest or weed control at 200 ppm in assay [1] and in assay [2] was ≥ 80% in each case. Moreover, the inhibition at 20 ppm in assay [3] is ≥ 80%.
For the compound `CN(Cc1ccc(-c2noc(C(F)(F)F)n2)cc1)S(=O)(=O)c1ccn(C)n1` [Compound 1.41, N,1-dimethyl-N-[[4-[5-(trifluoromethyl)-1,2,4-oxadiazol-3-yl]phenyl]methyl] pyrazole-3-sulfonamide], the pest or weed control at 200 ppm in assay [1] and in assay [2] was ≥ 80% each time. Also, the inhibition at 20 ppm in assay [3] is ≥ 80%.
Turning to `C=CCS(=O)(=O)N(C)Cc1ccc(-c2noc(C(F)(F)F)n2)cc1` [Compound 1.46, N-methyl-N-[[4-[5-(trifluoromethyl)-1,2,4-oxadiazol-3-yl]phenyl]methyl] prop-2-ene-1-sulfonamide], the pest or weed control at 200 ppm in assay [1] and in assay [2] was ≥ 80% throughout. In assay [3], the inhibition at 20 ppm is ≥ 80%.
For the compound `CN(Cc1ccc(-c2noc(C(F)(F)F)n2)cc1)S(=O)(=O)CC1CCOC1` (stereo not shown) [Compound 1.47, N-methyl-1-tetrahydrofuran-3-yl-N-[[4-[5-(trifluoromethyl)-1,2,4-oxadiazol-3-yl]phenyl]methyl] methanesulfonamide], the pest or weed control at 200 ppm in assay [1] and in assay [2] was ≥ 80% each time. Besides, the inhibition at 20 ppm in assay [3] was ≥ 80%.
For the compound `COCCS(=O)(=O)N(C)Cc1ccc(-c2noc(C(F)(F)F)n2)cc1` [Compound 1.49, 2-methoxy-N-methyl-N-[[4-[5-(trifluoromethyl)-1,2,4-oxadiazol-3-yl]phenyl]methyl] ethanesulfonamide], the pest or weed control at 200 ppm in assay [1] and in assay [2] was ≥ 80% in each case. For the same compound, the inhibition at 20 ppm in assay [3] is ≥ 80%.
Consider `C/C=C/S(=O)(=O)N(C)Cc1ccc(-c2noc(C(F)(F)F)n2)cc1` [Compound 1.51, (E)-N-methyl-N-[[4-(5-(trifluoromethyl)-1,2,4-oxadiazol-3-yl]phenyl]methyl] prop-1-ene-1-sulfonamide], for which the pest or weed control at 200 ppm in assay [1] and in assay [2] was ≥ 80% each time. In assay [3], the inhibition at 20 ppm was ≥ 80%.
For `CN(Cc1ccc(-c2noc(C(F)(F)F)n2)cc1)S(=O)(=O)CC1CC1` [Compound 1.52, 1-cyclopropyl-N-methyl-N-[[4-[5-(trifluoromethyl)-1,2,4-oxadiazol-3-yl]phenyl]methyl] methanesulfonamide], the pest or weed control at 200 ppm in assay [1] and in assay [2] was ≥ 80% each time. The inhibition at 20 ppm in assay [3] was ≥ 80%.
For `C=CCS(=O)(=O)N(CCC)Cc1ccc(-c2noc(C(F)(F)F)n2)cc1` [Compound 1.70, N-propyl-N-[[4-[5-(trifluoromethyl)-1,2,4-oxadiazol-3-yl]phenyl]methyl] prop-2-ene-1-sulfonamide], the pest or weed control at 200 ppm in assay [2] is ≥ 80%. For the same compound, the inhibition at 20 ppm in assay [3] is ≥ 80%.
Take `CCCN(Cc1ccc(-c2noc(C(F)(F)F)n2)cc1)S(=O)(=O)N(C)C` [Compound 1.81, N-(dimethylsulfamoyl)-N-[[4-[5-(trifluoromethyl)-1,2,4-oxadiazol-3-yl]phenyl]methyl] propan-1-amine]: the pest or weed control at 200 ppm in assay [2] is ≥ 80%. For the same compound, in assay [3], the inhibition at 20 ppm is ≥ 80%.
Regarding `CC(C)S(=O)(=O)NCc1ccc(-c2noc(C(F)(F)F)n2)cc1F` [Compound 2.21, N-[[2-fluoro-4-[5-(trifluoromethyl)-1,2,4-oxadiazol-3-yl]phenyl]methyl] propane-2-sulfonamide], the pest or weed control at 200 ppm in assay [2] was ≥ 80%.
